# Data from patent US9879308B2, “Apparatus for ex vivo microfluidic analysis of biologic samples” (The Charles Stark Draper Laboratory, Inc., priority 2012, dated 2018).
# Read-outs that look alike come from different tables or passages of the source.
# What was measured:
# [1] = test system: patient-derived osteosarcoma xenograft; test: Treatment of patient-derived osteosarcoma xenograft mice in vivo (MRI tumor volume, H&E, cleaved-caspase 3); set-up: species or system mouse
# Procedure: (§1) Xenograft mice bearing human osteosarcoma tumor were treated with vehicle, gemcitabine, MK-1775, or a combination of gemcitabine and MK-1775 for 15 days. Treatments were administered on day 1, 3, 8, and 10. FNAB samples were taken before (day 0) and at 6 and 24 hours after treatment. Cell extracts were prepared from the FNAB samples to assess expression levels of CDC2Y15, a target for MK-1775, by Western blot. After day 15, tumors were analyzed by T2-weighted MRIs and paraffin sections of tumors were prepared to assess microscopic features of cell death by H&E-staining and to assess levels of cleaved-caspase 3.
# The symbol (*) indicates statistical significance (p<0.05).
# CDC2Y15 = test: Western blot of CDC2Y15 expression in FNAB cell extracts from treated xenograft mice; set-up: species or system mouse; conditions: in vivo treatment; compared to vehicle and gemcitabine treatments; FIG. 7A column (a)
# Procedure: as §1
# [2] = test system: FNAB osteosarcoma samples; test: Ex vivo treatment of FNAB osteosarcoma samples in microfluidic apparatus, LIVE/DEAD fluorescence staining; type: cell-based, human
# Excerpt: Eight micro-scale fluidic apparatuses of the present technology were fabricated from soft photolithography and bonded onto glass coverslip slides. The apparatuses were sterilized by ethylene oxide (EtO) gas. Each fluidic apparatus included a single channel, and the center of the channel contained a series of seven free standing post, collectively called the retaining element, which were used to retain the FNBA osteosarcoma sample (see FIG. 3A). Fluid flows into the channel by an inlet port and out of the channel by an outlet port.
# FNAB osteosarcoma samples were taken from xenograft mouse with patient-derived osteosarcoma using a 25-gauge needle. FNABs were processed and selected for viability by H&E staining procedures before use and individually loaded one into each retaining element and imaged by microscopy and measured for size (all FNABs assayed were ˜300 μm in diameter). […]
# The fluidic apparatuses were connected to their respective syringe pumps. […] Media was collected every 24 hours and analyzed for caspase 3 and 7 and lactate dehydrogenase (LDH). […]
# The FNAB samples were fully penetrated by drugs. Tumor cells were stained with HCS LIVE/DEAD® Green Kit (Life Technologies, Carlsband, Calif.) and images were obtained using inverted fluorescence microscope to assess dead (green) and alive (blue) cells.
# [3] = test system: tumor fragments obtained by FNAB from a patient-derived osteosarcoma xenograft model; type: in vitro ADME, human
# Procedure: (§2) FIG. 8 provides an expanded view of an extracted ion chromatogram (XIC) from a potential metabolite highlighted against the background sample. Perfused fluid was collected from the fluidic apparatus as described in the above experiment performed with the FNAB samples (FIGS. 2A-C) to determine whether tumor-mediated drug processing and metabolism can be analyzed. Fluidic samples were prepared by filtration and analyzed by mass spectrometry.
# [4] = test system: FNAB osteosarcoma samples; test: Active caspase ELISA of perfused fluid from fluidic apparatus; type: cell-based, human; conditions: data not shown
# Procedure: The fluidic apparatuses were connected to their respective syringe pumps. The FNAB samples were first primed with several passes of culture media. After priming, each FNAB sample was subject to constant laminar flow at 100 μl/hr for 72 hours with their respective treatment. Media was collected every 24 hours and analyzed for caspase 3 and 7 and lactate dehydrogenase (LDH).
# as §2
# [5] = compared to vehicle and gemcitabine treatments, FIG. 7A column (c)
SMILES,"apoptosis of the cancer cells, in vivo model ([1]; 15 days of treatment)","DNA staining of tumor sections [1, 5]","immunoreactivity to caspase 3 [1, 5]","tumor volume at day 15 ([1]; day 15, compared to vehicle and gemcitabine treatments, FIG. 7A column (b))","cell death in vivo ([1]; patient-derived osteosarcoma xenograft mouse model, FIG. 7A)",expression levels of CDC2Y15 (CDC2Y15),"cell death in tumor fragments ex vivo ([2]; 1 μM MK-1775, 3 μM gemcitabine, 100 μl/hr for 72 hours, LIVE/DEAD stain, FIG. 7C)","apoptosis of the cancer cells, ex vivo model ([2]; 72 hour period)",drug metabolism by tumor fragments (mass spectrometry) ([3]; human),cell death by active caspase ELISA [4],drug metabolism by tumor fragments (mass spectrometry) [3]
C=CCn1c(=O)c2cnc(Nc3ccc(N4CCN(C)CC4)cc3)nc2n1-c1cccc(C(C)(C)O)n1 [MK-1775],able to induce apoptosis,decreased DNA staining,high immunoreactivity to caspase 3,reduced tumor volume,lead to cell death,reduces expression levels of CDC2Y15,lead to cell death,able to induce apoptosis,metabolism of MK-1775 into its metabolized forms,increased cell death,–
Nc1ccn([C@@H]2O[C@H](CO)[C@@H](O)C2(F)F)c(=O)n1 [gemcitabine],–,–,–,–,–,–,–,–,–,not,"active metabolism of gemcitabine into its active form, triphosphate"
